According to publication PMC4138991, “Building a Better Dynasore: The Dyngo Compounds Potently Inhibit Dynamin and Endocytosis” (Traffic (Copenhagen, Denmark), 2013):

Key:
[1] = biological target: native sheep brain dynamin I (Ovis aries, UniProt A0ACI6PDC7); test: PS liposome-stimulated (helical) dynamin I GTPase assay (Malachite Green); type: biochemical; conditions: GTP 50–250 μM, 4a 0.5–6 μM, 17 nM dynamin I, Lineweaver–Burke
Source text: (§1) Recombinant dynamin I was used only for the data in Table 2. The dynamin antibodies were from: Dynamin I—in‐house YF2 antibodies, raised in rabbits against two different synthetic peptides: dynamin I 629‐647 ([…]) and dynamin I 765–778 ([…]), used at 1/2000 dilution, as previously described 53; Dynamin II—Santa Cruz (C‐18, sc‐6400, used at 1/1000) and Dynamin III—Santa Cruz (P‐13, sc‐69472, used at 1/500 dilution).
The Malachite Green colorimetric GTPase assay was as described 10. Dynamin I activity was measured in its SAI activity state or was stimulated by three different methods. As each stimulus activates dynamin to different extents, each assay required different dynamin concentrations. First, maximal dynamin activity was stimulated by sonicated PS liposomes 10. […] Finally, dynamin (500 nM) SAI activity was measured using high concentrations of dynamin, which promote its cooperative self‐assembly into rings (but not helices) 26. […] After the Vmax and Km values were determined, the data were transformed using the Lineweaver–Burke equation, 1/v = 1/Vmax + (Km/Vmax)(1/[S]).

[2] = biological target: T1, DynI (rec), full-length human dynamin I (Homo sapiens, UniProt Q05193); test: PS-stimulated GTPase assay with recombinant dynamin I from Sf21 cells; type: biochemical; conditions: for IC50: DynI 20 nM, no unit in table; for DynI selectivity ratio: DynI (rec) versus DynII (rec)
T1 sequence (Q05193 1-864): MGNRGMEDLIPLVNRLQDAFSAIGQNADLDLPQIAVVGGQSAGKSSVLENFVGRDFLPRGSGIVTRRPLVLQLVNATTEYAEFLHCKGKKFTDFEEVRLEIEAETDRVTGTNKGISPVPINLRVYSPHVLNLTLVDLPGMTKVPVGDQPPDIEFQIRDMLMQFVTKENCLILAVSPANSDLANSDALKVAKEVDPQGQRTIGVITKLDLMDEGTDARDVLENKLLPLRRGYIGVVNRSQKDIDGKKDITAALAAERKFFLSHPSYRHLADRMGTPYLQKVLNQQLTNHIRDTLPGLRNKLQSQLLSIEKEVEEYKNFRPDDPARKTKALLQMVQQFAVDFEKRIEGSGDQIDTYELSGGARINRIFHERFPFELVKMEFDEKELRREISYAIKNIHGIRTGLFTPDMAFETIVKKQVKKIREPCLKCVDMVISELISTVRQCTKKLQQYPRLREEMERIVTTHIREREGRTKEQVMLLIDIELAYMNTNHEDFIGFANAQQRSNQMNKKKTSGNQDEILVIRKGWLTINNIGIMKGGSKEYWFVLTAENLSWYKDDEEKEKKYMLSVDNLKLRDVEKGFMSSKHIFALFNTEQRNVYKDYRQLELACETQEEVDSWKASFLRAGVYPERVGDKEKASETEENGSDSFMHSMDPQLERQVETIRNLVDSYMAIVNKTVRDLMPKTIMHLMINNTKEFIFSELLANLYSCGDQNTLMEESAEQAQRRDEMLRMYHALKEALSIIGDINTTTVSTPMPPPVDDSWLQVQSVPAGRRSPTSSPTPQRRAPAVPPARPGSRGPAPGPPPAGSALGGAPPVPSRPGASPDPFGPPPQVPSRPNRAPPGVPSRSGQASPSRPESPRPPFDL
Source text: as §1
The Malachite Green colorimetric GTPase assay was as described 10. Dynamin I activity was measured in its SAI activity state or was stimulated by three different methods. As each stimulus activates dynamin to different extents, each assay required different dynamin concentrations. First, maximal dynamin activity was stimulated by sonicated PS liposomes 10. Purified dynamin I (10–20 nM, diluted in: 6 mM Tris–HCl, 20 mM NaCl and 0.01% Tween 80, pH 7.4) was incubated in 96‐well plates in GTPase buffer (5 mM Tris–HCl, 10 mM NaCl, 2 mM Mg^2+, 0.05% Tween 80, pH 7.4, 1 µg/mL leupeptin and 0.1 mM PMSF) and GTP 0.3 mM in the presence of test compound for 30 min at 37°C in a final assay volume of 150 μL. Reactions were terminated with 10 μL of 0.5 M ethylenediaminetetraacetic acid (EDTA) pH 7.4 and Malachite Green solution (40 μL: 2% w/v ammonium molybdate tetrahydrate, 0.15% w/v malachite green and 4 M HCl) was added for 5 min. Second, dynamin (20 nM) was stimulated by 10 µg/mL of taxol‐stabilized preformed bovine brain microtubules (Cytoskeleton, Inc) using the same protocol. Third, dynamin I (50 nM) was stimulated by 1 μM of recombinant growth factor receptor‐bound protein 2 (grb2), a SH3 (Src homology)‐containing protein that stimulates dynamin about 5–10 times less efficiently than liposomes or microtubules 54. The assay conditions were as described above. Finally, dynamin (500 nM) SAI activity was measured using high concentrations of dynamin, which promote its cooperative self‐assembly into rings (but not helices) 26. The final DMSO concentration in the GTPase or endocytosis assays was at most 3.3 or 1%, respectively, but typically was at 1%. The GTPase assay for dynamin I was unaffected by DMSO up to 3.3%. Compounds were dissolved as 30 mM stocks in 100% DMSO. These stock solutions can be stored at −20°C for several months. Compounds were subsequently diluted into solutions of 50% DMSO made up in 20 mM Tris–HCl pH 7.4 and diluted again into the final assay. For analysis of the kinetics of 4a inhibition, dynamin I at a final concentration of 17 nM was incubated with GTPase buffer containing PS (2 µg/mL) and varying amounts of GTP (50–250 μM) in the presence of 4a at a concentration range between 0.5 and 6 μM. […] After the Vmax and Km values were determined, the data were transformed using the Lineweaver–Burke equation, 1/v = 1/Vmax + (Km/Vmax)(1/[S]).

cultured CGNs = test: Fluorescent dextran uptake (ADBE) in CGNs; type: cell-based, rat; conditions: 30 μM, 15 min
Description: Granule neuron cultures were prepared from the cerebella of 7‐day‐old rat pups as previously described 57. In all experiments, neurons were used between 8 and 10 days in vitro.
Uptake of tetramethyrhodamine‐dextran (40 kDa) into nerve terminals of CGNs was monitored as described previously 40. Briefly, cells were left for 10 min in incubation medium and then stimulated with a train of 800 action potentials (80 Hz for 10 seconds) in the presence of tetramethyrhodamine‐dextran (50 μM). Dyngo compound 4a (30 μM) was present for 15 min prior to and including action potential stimulation. Dextran loading was determined by the number of fluorescent puncta in a defined field of view ([…]) using a 20× air objective at 550‐nm excitation and >575‐nm emission. Threshold analysis was performed to discount regions too large to represent individual nerve terminals (diameter greater than […]). The number of dextran puncta per field for each experiment (usually 10 fields of view per experiment) was averaged and subtracted from background fluorescence. To ensure that the density of nerve terminals was consistent between fields and experimental conditions, experiments were performed on the same set of cultures.

[3] = biological target: grb2-stimulated dynamin I (from brain) (Ovis aries, UniProt A0ACI6PDC7); test: grb2-stimulated (ring) dynamin I GTPase assay; type: biochemical, sheep
Description: The Malachite Green colorimetric GTPase assay was as described 10. Dynamin I activity was measured in its SAI activity state or was stimulated by three different methods. As each stimulus activates dynamin to different extents, each assay required different dynamin concentrations. First, maximal dynamin activity was stimulated by sonicated PS liposomes 10. Purified dynamin I (10–20 nM, diluted in: 6 mM Tris–HCl, 20 mM NaCl and 0.01% Tween 80, pH 7.4) was incubated in 96‐well plates in GTPase buffer (5 mM Tris–HCl, 10 mM NaCl, 2 mM Mg^2+, 0.05% Tween 80, pH 7.4, 1 µg/mL leupeptin and 0.1 mM PMSF) and GTP 0.3 mM in the presence of test compound for 30 min at 37°C in a final assay volume of 150 μL. Reactions were terminated with 10 μL of 0.5 M ethylenediaminetetraacetic acid (EDTA) pH 7.4 and Malachite Green solution (40 μL: 2% w/v ammonium molybdate tetrahydrate, 0.15% w/v malachite green and 4 M HCl) was added for 5 min. Second, dynamin (20 nM) was stimulated by 10 µg/mL of taxol‐stabilized preformed bovine brain microtubules (Cytoskeleton, Inc) using the same protocol. […] Finally, dynamin (500 nM) SAI activity was measured using high concentrations of dynamin, which promote its cooperative self‐assembly into rings (but not helices) 26. […] After the Vmax and Km values were determined, the data were transformed using the Lineweaver–Burke equation, 1/v = 1/Vmax + (Km/Vmax)(1/[S]).

Calyx of Held = tested on: Calyx of Held; set-up: method as in PMID 18066059; conditions: 100 μM, 5-min preincubation; cited from earlier work

Sequence of grb2-stimulated dynamin I (from brain) (A0ACI6PDC7 entry or part of it): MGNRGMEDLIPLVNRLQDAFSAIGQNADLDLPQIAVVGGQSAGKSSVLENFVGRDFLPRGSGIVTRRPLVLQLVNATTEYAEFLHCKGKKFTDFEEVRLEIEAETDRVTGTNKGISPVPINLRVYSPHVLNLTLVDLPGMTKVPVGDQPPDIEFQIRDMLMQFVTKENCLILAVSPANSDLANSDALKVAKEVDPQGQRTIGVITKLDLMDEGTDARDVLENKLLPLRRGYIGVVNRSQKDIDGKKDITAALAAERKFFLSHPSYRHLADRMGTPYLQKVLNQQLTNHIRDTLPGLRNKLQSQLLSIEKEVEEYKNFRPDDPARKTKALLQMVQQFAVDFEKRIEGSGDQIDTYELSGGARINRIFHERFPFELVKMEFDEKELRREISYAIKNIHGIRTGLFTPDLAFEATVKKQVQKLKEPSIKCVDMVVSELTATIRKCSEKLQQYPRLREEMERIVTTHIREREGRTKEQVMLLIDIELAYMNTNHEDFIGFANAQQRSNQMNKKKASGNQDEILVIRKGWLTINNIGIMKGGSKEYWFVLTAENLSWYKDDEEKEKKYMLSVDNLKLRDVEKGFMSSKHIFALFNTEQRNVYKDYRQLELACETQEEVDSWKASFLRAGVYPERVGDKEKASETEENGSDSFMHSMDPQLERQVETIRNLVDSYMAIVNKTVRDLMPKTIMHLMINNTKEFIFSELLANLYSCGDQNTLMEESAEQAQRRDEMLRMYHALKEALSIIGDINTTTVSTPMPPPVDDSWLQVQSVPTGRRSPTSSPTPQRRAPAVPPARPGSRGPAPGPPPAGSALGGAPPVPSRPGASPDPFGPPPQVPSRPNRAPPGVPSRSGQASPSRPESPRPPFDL
Sequence of native sheep brain dynamin I (A0ACI6PDC7 entry or part of it): as above

Compound | kinetics of inhibition with respect to GTP [1] | IC50 ([2]; Absence of Tween) | DynI selectivity ratio ([2]; Absence of Tween) | IC50 ([2]; Presence of Tween) | DynI selectivity ratio ([2]; Presence of Tween) | maximum block of ADBE measured by dextran uptake (cultured CGNs) | block of grb2-SH3 stimulated ring dynamin activity ([3]; presence of Tween-80) | fold reduced activity against grb2-stimulated ring dynamin versus PS-stimulated helical dynamin ([3]; without Tween-80) | SVE at the Calyx of Held (Calyx of Held)
O=C(N/N=C/c1cc(O)c(O)cc1O)c1cc2ccccc2cc1O [4a, (E)-3-Hydroxy-N'-(2,4,5-trihydroxybenzylidene) -2-naphthohydrazide] | non‐competitive inhibitor | 1.1 ± 0.2 µM | 2.1 | 30 ± 8.2 µM | 3.1 | > 80% |  |  | 
O=C(N/N=C/c1ccc(O)c(O)c1)c1cc2ccccc2cc1O [Dynasore, (E)-N'-(3,4-Dihydroxybenzylidene)-3-hydroxy-2-naphthohydrazide] |  |  |  |  |  |  | did not block | threefold less potent | inhibit SVE
